According to ChEMBL document CHEMBL1201862, “PubChem BioAssay data set” (2004):
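Compound exposure: 48 hours, 5 concentrations, 96-well plates. GI50 is the concentration that inhibits growth by half.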 Activity calls are given as the source filed them. Cut-off read from the data, not from the text of the source: active = GI50 up to about 1.1 µM and inactive = higher.

Key:
Experiment in all cases: NCI-60 cell line screen, 48 h
BT-549 = tested on: BT-549
CAKI-1 = tested on: CAKI-1
UACC-62 = tested on: UACC-62
MCF7 = tested on: MCF7
OVCAR-4 = tested on: OVCAR-4
MOLT-4 = tested on: MOLT-4
PC-3 = tested on: PC-3
MDA-MB-231 = tested on: MDA-MB-231
SNB-19 = tested on: SNB-19
CCRF-CEM = tested on: CCRF-CEM
HT-29 = tested on: HT-29
HCC 2998 = tested on: HCC 2998
MDA-MB-435 = tested on: MDA-MB-435
HCT-116 = tested on: HCT-116
HCT-15 = tested on: HCT-15
LOX IMVI = tested on: LOX IMVI
SNB-75 = tested on: SNB-75
Hs-578T = tested on: Hs-578T
DU-145 = tested on: DU-145
SR = tested on: SR
COLO 205 = tested on: COLO 205
SK-MEL-28 = tested on: SK-MEL-28
NCI-H522 = tested on: NCI-H522
SF-539 = tested on: SF-539
NCI-H226 = tested on: NCI-H226
RPMI-8226 = tested on: RPMI-8226
SK-OV-3 = tested on: SK-OV-3
M14 = tested on: M14
SK-MEL-2 = tested on: SK-MEL-2
KM12 = tested on: KM12
OVCAR-8 = tested on: OVCAR-8
HL-60 = tested on: HL-60
NCI/ADR-RES = tested on: NCI/ADR-RES
ACHN = tested on: ACHN
SF-295 = tested on: SF-295
A498 = tested on: A498
NCI-H23 = tested on: NCI-H23
T47D = tested on: T47D
786-0 = tested on: 786-0
EKVX = tested on: EKVX
MDA-N = tested on: MDA-N
OVCAR-3 = tested on: OVCAR-3
K562 = tested on: K562
SK-MEL-5 = tested on: SK-MEL-5
SW-620 = tested on: SW-620
RXF 393 = tested on: RXF 393
HOP-62 = tested on: HOP-62
OVCAR-5 = tested on: OVCAR-5
A549 = tested on: A549
UACC-257 = tested on: UACC-257
UO-31 = tested on: UO-31
U-251 = tested on: U-251
SN12C = tested on: SN12C
TK-10 = tested on: TK-10
Malme-3M = tested on: Malme-3M
IGROV-1 = tested on: IGROV-1
SF-268 = tested on: SF-268
HOP-92 = tested on: HOP-92
NCI-H460 = tested on: NCI-H460

With `C=C1C2CC[C@@](C)(O)C2[C@H]2OC(=O)C(=C)[C@@H]2C[C@H]1O` (stereo not given in full) the GI50 (BT-549) was 10.3 µM (inactive), the GI50 (CAKI-1) was 12.1 µM (inactive) and the GI50 (UACC-62) was 16 µM (inactive). The GI50 (MCF7) was 14.2 µM (inactive), the GI50 (OVCAR-4) was 14.9 µM (inactive) and the GI50 (MOLT-4) was 14.7 µM (inactive). The GI50 (PC-3) was 34.4 µM (inactive), the GI50 (MDA-MB-231) was 18.8 µM (inactive) and the GI50 (SNB-19) was 48.6 µM (inactive). The GI50 (CCRF-CEM) was 2.56 µM (inactive), the GI50 (HT-29) was 16.1 µM (inactive) and the GI50 (HCC 2998) was 19.1 µM (inactive). For the same compound, the GI50 (MDA-MB-435) was 26 µM (inactive), the GI50 (HCT-116) was 27 µM (inactive) and the GI50 (HCT-15) was 16.7 µM. The GI50 (LOX IMVI) was 15 µM (inactive), the GI50 (SNB-75) was 43.4 µM (inactive) and the GI50 (Hs-578T) was 23.4 µM (inactive). The GI50 (DU-145) was 15.5 µM (inactive), the GI50 (SR) was 17.1 µM (inactive) and the GI50 (COLO 205) was 15 µM (inactive). For the same compound, the GI50 (SK-MEL-28) was 26 µM (inactive), the GI50 (NCI-H522) was 14.7 µM (inactive) and the GI50 (SF-539) was 14.2 µM (inactive). The GI50 (NCI-H226) was 18 µM (inactive), the GI50 (RPMI-8226) was 13.1 µM (inactive) and the GI50 (SK-OV-3) was 29.1 µM (inactive). The GI50 (M14) was 13.8 µM (inactive), the GI50 (SK-MEL-2) was 20.9 µM (inactive) and the GI50 (KM12) was 19.7 µM (inactive). The GI50 (OVCAR-8) was 22.3 µM (inactive), the GI50 (HL-60) was 37.2 µM (inactive) and the GI50 (NCI/ADR-RES) was 18.8 µM (inactive). For the same compound, the GI50 (ACHN) was 10.8 µM (inactive), the GI50 (SF-295) was 54.6 µM (inactive) and the GI50 (A498) was 41 µM (inactive). For the same compound, the GI50 (NCI-H23) was 17.7 µM (inactive), the GI50 (T47D) was 17.8 µM (inactive) and the GI50 (786-0) was 16.1 µM (inactive). The GI50 (EKVX) was 29 µM (inactive), the GI50 (MDA-N) was 24.5 µM (inactive) and the GI50 (OVCAR-3) was 20.4 µM (inactive). The GI50 (K562) was 28.6 µM (inactive), the GI50 (SK-MEL-5) was 8.38 µM (inactive) and the GI50 (SW-620) was 29.7 µM (inactive). The GI50 (RXF 393) was 22.1 µM (inactive), the GI50 (HOP-62) was 30.7 µM (inactive) and the GI50 (OVCAR-5) was 29 µM (inactive). For the same compound, the GI50 (A549) was 29.3 µM (inactive), the GI50 (UACC-257) was 16.3 µM (inactive) and the GI50 (UO-31) was 13.6 µM (inactive). For the same compound, the GI50 (U-251) was 31.9 µM (inactive), the GI50 (SN12C) was 18.5 µM (inactive) and the GI50 (TK-10) was 14.9 µM (inactive). For the same compound, the GI50 (Malme-3M) was 15.2 µM (inactive), the GI50 (IGROV-1) was 28.4 µM (inactive) and the GI50 (SF-268) was 49.2 µM (inactive). For the same compound, the GI50 (HOP-92) was 27.5 µM (inactive).
For `O=C(c1ccccc1)c1c(-c2ccccc2)[nH]n(-c2ccc([N+](=O)[O-])cc2)c(=O)c1=O`, the GI50 (BT-549) was 27.6 µM (inactive), the GI50 (CAKI-1) was 87.3 µM (inactive) and the GI50 (UACC-62) was < 0.01 µM (active). The GI50 (MCF7) was 33.7 µM (inactive), the GI50 (OVCAR-4) was 25.8 µM (inactive) and the GI50 (MOLT-4) was 37.2 µM (inactive). The GI50 (PC-3) was 42.9 µM (inactive), the GI50 (MDA-MB-231) was 30.1 µM (inactive) and the GI50 (SNB-19) was 6.47 µM (inactive). The GI50 (CCRF-CEM) was 47 µM (inactive), the GI50 (HT-29) was 36.6 µM (inactive) and the GI50 (HCC 2998) was 64.7 µM (inactive). The GI50 (MDA-MB-435) was 75.2 µM (inactive), the GI50 (HCT-116) was 53.2 µM (inactive) and the GI50 (HCT-15) was 39.5 µM. For the same compound, the GI50 (NCI-H460) was 37.2 µM (inactive), the GI50 (Hs-578T) was 0.504 µM (active) and the GI50 (DU-145) was > 100 µM (inactive). The GI50 (SR) was 35.5 µM (inactive), the GI50 (COLO 205) was > 100 µM (inactive) and the GI50 (SK-MEL-28) was 21 µM (inactive). The GI50 (NCI-H522) was 23.4 µM (inactive), the GI50 (SF-539) was 28.8 µM (inactive) and the GI50 (NCI-H226) was 39.7 µM (inactive). For the same compound, the GI50 (RPMI-8226) was 43.9 µM (inactive), the GI50 (SK-OV-3) was 36.9 µM (inactive) and the GI50 (M14) was > 100 µM (inactive). For the same compound, the GI50 (SK-MEL-2) was 21.1 µM (inactive), the GI50 (KM12) was 94.8 µM (inactive) and the GI50 (OVCAR-8) was 31.1 µM (inactive). For the same compound, the GI50 (HL-60) was > 100 µM (inactive), the GI50 (NCI/ADR-RES) was 49.5 µM (inactive) and the GI50 (ACHN) was 99.1 µM (inactive). For the same compound, the GI50 (SF-295) was 46.8 µM (inactive), the GI50 (A498) was > 100 µM (inactive) and the GI50 (NCI-H23) was 0.2 µM (active). For the same compound, the GI50 (T47D) was 81.8 µM (inactive), the GI50 (786-0) was > 100 µM (inactive) and the GI50 (EKVX) was 91 µM (inactive). The GI50 (MDA-N) was > 100 µM (inactive), the GI50 (OVCAR-3) was 56.2 µM (inactive) and the GI50 (K562) was 41.5 µM (inactive). The GI50 (SK-MEL-5) was > 100 µM (inactive), the GI50 (SW-620) was 42.6 µM (inactive) and the GI50 (RXF 393) was > 100 µM (inactive). The GI50 (HOP-62) was > 100 µM (inactive), the GI50 (OVCAR-5) was > 100 µM (inactive) and the GI50 (A549) was 38.5 µM (inactive). For the same compound, the GI50 (UACC-257) was 41.5 µM (inactive), the GI50 (UO-31) was 32.1 µM (inactive) and the GI50 (U-251) was 5.78 µM (inactive). For the same compound, the GI50 (SN12C) was 57.3 µM (inactive), the GI50 (TK-10) was 91.8 µM (inactive) and the GI50 (Malme-3M) was > 100 µM (inactive). The GI50 (IGROV-1) was > 100 µM (inactive), the GI50 (SF-268) was 40.2 µM (inactive) and the GI50 (HOP-92) was 16.8 µM (inactive).
With `COc1cccc(CCn2c(N)c(C#N)c3ccc([N+](=O)[O-])cc3c2=O)c1` the GI50 (BT-549) was > 10 µM (inactive), the GI50 (CAKI-1) was > 46.5 µM (inactive) and the GI50 (UACC-62) was > 31.6 µM (inactive). The GI50 (MCF7) was > 31.6 µM (inactive), the GI50 (OVCAR-4) was > 84.7 µM (inactive) and the GI50 (MOLT-4) was > 31.6 µM (inactive). The GI50 (PC-3) was > 46.5 µM (inactive), the GI50 (MDA-MB-231) was > 46.5 µM (inactive) and the GI50 (SNB-19) was 98.2 µM (inactive). For the same compound, the GI50 (CCRF-CEM) was 4.35 µM (inactive), the GI50 (HT-29) was > 31.6 µM (inactive) and the GI50 (HCC 2998) was > 46.5 µM (inactive). For the same compound, the GI50 (MDA-MB-435) was 0.22 µM (active), the GI50 (HCT-116) was > 46.5 µM (inactive) and the GI50 (HCT-15) was greater than 31.6 µM. The GI50 (LOX IMVI) was > 46.5 µM (inactive), the GI50 (NCI-H460) was > 46.5 µM (inactive) and the GI50 (SNB-75) was > 46.5 µM (inactive). For the same compound, the GI50 (Hs-578T) was 39.9 µM (inactive), the GI50 (DU-145) was > 46.5 µM (inactive) and the GI50 (SR) was 0.073 µM (active). For the same compound, the GI50 (COLO 205) was > 100 µM (inactive), the GI50 (SK-MEL-28) was > 100 µM (inactive) and the GI50 (SF-539) was > 10 µM (inactive). For the same compound, the GI50 (NCI-H226) was > 31.6 µM (inactive), the GI50 (SK-OV-3) was > 31.6 µM (inactive) and the GI50 (M14) was > 31.6 µM (inactive). For the same compound, the GI50 (SK-MEL-2) was > 46.5 µM (inactive), the GI50 (KM12) was > 31.6 µM (inactive) and the GI50 (OVCAR-8) was > 46.5 µM (inactive). The GI50 (HL-60) was 3.78 µM (inactive), the GI50 (NCI/ADR-RES) was > 46.5 µM (inactive) and the GI50 (ACHN) was > 46.5 µM (inactive). For the same compound, the GI50 (SF-295) was > 31.6 µM (inactive), the GI50 (A498) was > 100 µM (inactive) and the GI50 (NCI-H23) was > 46.5 µM (inactive). The GI50 (T47D) was > 46.5 µM (inactive), the GI50 (786-0) was > 46.5 µM (inactive) and the GI50 (EKVX) was > 31.6 µM (inactive). For the same compound, the GI50 (MDA-N) was 0.256 µM (active), the GI50 (OVCAR-3) was > 31.6 µM (inactive) and the GI50 (K562) was 0.283 µM (active). For the same compound, the GI50 (SK-MEL-5) was > 100 µM (inactive), the GI50 (SW-620) was > 100 µM (inactive) and the GI50 (HOP-62) was > 31.6 µM (inactive). For the same compound, the GI50 (OVCAR-5) was > 31.6 µM (inactive), the GI50 (A549) was > 46.5 µM (inactive) and the GI50 (UACC-257) was > 31.6 µM (inactive). The GI50 (UO-31) was > 46.5 µM (inactive), the GI50 (U-251) was > 100 µM (inactive) and the GI50 (SN12C) was > 100 µM (inactive). The GI50 (TK-10) was > 46.5 µM (inactive), the GI50 (IGROV-1) was > 31.6 µM (inactive) and the GI50 (SF-268) was > 46.5 µM (inactive). For the same compound, the GI50 (HOP-92) was > 31.6 µM (inactive).
